Data on 20 compounds can be found in ChEMBL document CHEMBL5634077, “Recent advances in 1,2,3- and 1,2,4-triazole hybrids as antimicrobials and their SAR: A critical review” (2023).

Broadly, the MIC is the smallest concentration in the dilution series that meets the test's criterion for growth inhibition.

Values after ≈ are worked out from the molar mass of the structure shown.

Holding throughout (format): functional
In assay [1] the test system is Staphylococcus aureus. As to the kind of experiment: Antibacterial activity against methicillin-sensitive Staphylococcus aureus assessed as reduction in microbial growth incubated for 18 to 24 hrs by serial dilution method. The note with it: time 18-24 hrs.
The test system of assay [2] is Staphylococcus aureus. As to the kind of experiment: Antibacterial activity against Staphylococcus aureus assessed as reduction in microbial growth incubated for 18 to 24 hrs by serial dilution method. Particulars: time 18-24 hrs.
The subject of assay [3] is Staphylococcus aureus. As to the kind of experiment: Antibacterial activity against methicillin-resistant Staphylococcus aureus assessed as reduction in microbial growth incubated for 18 to 24 hrs by serial dilution method. Particulars: time 18-24 hrs.
For assay [4], the system named is Bacillus subtilis. As to the kind of experiment: Antibacterial activity against Bacillus subtilis MTCC 441 assessed as reduction in microbial growth.
Assay [5] concerns Staphylococcus epidermidis. As to the kind of experiment: Antibacterial activity against Staphylococcus epidermidis assessed as reduction in microbial growth.
A further assay deals with Candida albicans. As to the kind of experiment: Antifungal activity against Candida albicans MTCC 227 assessed as inhibition of fungal growth.
A further assay concerns Escherichia coli. As to the kind of experiment: Antibacterial activity against Escherichia coli MTCC 16521 assessed as reduction in microbial growth.
A further assay concerns Aspergillus niger. As to the kind of experiment: Antifungal activity against Aspergillus niger MTCC 8189 assessed as inhibition of fungal growth.
In assay [6] the test system is Staphylococcus epidermidis. As to the kind of experiment: Antibacterial activity against Staphylococcus epidermidis assessed as inhibition of bacterial growth by microdilution method.
In assay [7] the test system is Staphylococcus aureus. As to the kind of experiment: Antibacterial activity against Staphylococcus aureus assessed as inhibition of bacterial growth by microdilution method. A general note: Dilution methods test growth across graded concentrations, often in twofold steps.
Assay [8] relates to Bacillus subtilis. As to the kind of experiment: Antibacterial activity against Bacillus subtilis assessed as inhibition of bacterial growth by microdilution method.

In the case of `COc1c(N2CCN(C(=O)Cn3cc(CN4C(=O)C(=O)c5cc(C)ccc54)nn3)C(C)C2)c(F)cc2c(=O)c(C(=O)O)cn(C3CC3)c12` (stereo not given), the minimum inhibitory concentration (MIC) with Staphylococcus aureus [1], in the assay with Staphylococcus aureus [2] and with Staphylococcus aureus [3] was 0.03 µg/mL in each case.
Regarding `COc1c(N2CCN(C(=O)Cn3cc(CN4C(=O)C(=O)c5cc(F)ccc54)nn3)C(C)C2)c(F)cc2c(=O)c(C(=O)O)cn(C3CC3)c12` (stereo not given), the MIC in the assay on Staphylococcus aureus [1], with Staphylococcus aureus [2] and with Staphylococcus aureus [3] was 0.03 µg/mL each time.
`CO/N=C1/C(=O)N(Cc2cn(CC(=O)N3CCN(c4c(F)cc5c(=O)c(C(=O)O)cn(C6CC6)c5c4OC)CC3C)nn2)c2ccc(F)cc21` (stereo not given): the MIC in the assay with Staphylococcus aureus [1], in the assay on Staphylococcus aureus [2] and with Staphylococcus aureus [3] was 0.03 µg/mL in each case.
`CCO/N=C1/C(=O)N(Cc2cn(CC(=O)N3CCN(c4c(F)cc5c(=O)c(C(=O)O)cn(C6CC6)c5c4OC)CC3C)nn2)c2ccc(C)cc21` (stereo not given): the MIC in the assay on Staphylococcus aureus [1], with Staphylococcus aureus [2] and in the assay on Staphylococcus aureus [3] was 0.03 µg/mL each time.
For the compound `CCO/N=C1/C(=O)N(Cc2cn(CC(=O)N3CCN(c4c(F)cc5c(=O)c(C(=O)O)cn(C6CC6)c5c4OC)CC3C)nn2)c2ccccc21` (stereo not given), the MIC with Staphylococcus aureus [1], in the assay with Staphylococcus aureus [2] and in the assay with Staphylococcus aureus [3] was 0.03 µg/mL throughout.
Take `O=C(NCc1cn(CCCCn2cc(CNC(=O)Nc3ccc(F)cc3)nn2)nn1)Nc1ccc(F)cc1`: the MIC in the assay on Bacillus subtilis [4] was 6 µM; in assay [5] it was 6 µM; with Candida albicans, 6 µM (≈ 3.15 µg/mL); in the assay with Escherichia coli, 6 µM; in the assay on Aspergillus niger, 6 µM (≈ 3.15 µg/mL).
As to `O=C(NCc1cn(CCCn2cc(CNC(=O)Nc3ccc(Cl)cc3)nn2)nn1)Nc1ccc(Cl)cc1`, the MIC in the assay on Bacillus subtilis [4] came to 6 µM; in assay [5] it was 6 µM; with Candida albicans, 6 µM (≈ 3.26 µg/mL); in the assay with Escherichia coli, 6 µM; in the assay on Aspergillus niger it was 6 µM (≈ 3.26 µg/mL).
Consider `COc1c(N2CCN(C(=O)Cn3cc(CN4C(=O)C(=O)c5cc(Cl)cc(Cl)c54)nn3)C(C)C2)c(F)cc2c(=O)c(C(=O)O)cn(C3CC3)c12` (stereo not given), for which the minimum inhibitory concentration (MIC) with Staphylococcus aureus [1], with Staphylococcus aureus [2] and in the assay with Staphylococcus aureus [3] was 0.03 µg/mL throughout.
Turning to `Fc1cc(-n2cc(COc3cccc4cccnc34)nn2)ccc1N1CCOCC1`, the MIC was 25 µg/mL (≈ 61.7 µM) in assay [6], 50 µg/mL (≈ 123 µM) in the assay on Staphylococcus aureus [7] and 25 µg/mL (≈ 61.7 µM) in the assay with Bacillus subtilis [8].
With `O=C(NCc1cn(CCCCn2cc(CNC(=O)Nc3ccc(Cl)cc3)nn2)nn1)Nc1ccc(Cl)cc1`, the MIC in the assay with Bacillus subtilis [4] is 6 µM; in assay [5], 6 µM; in the assay with Candida albicans it was 6 µM (≈ 3.34 µg/mL); with Escherichia coli it was 6 µM; in the assay with Aspergillus niger, 6 µM (≈ 3.34 µg/mL).
For the compound `O=C(NCc1cn(CCCCCn2cc(CNC(=O)Nc3ccc(F)cc3)nn2)nn1)Nc1ccc(F)cc1`, the MIC in the assay with Bacillus subtilis [4] is 6 µM; in assay [5], 6 µM; in the assay with Candida albicans it was 6 µM (≈ 3.23 µg/mL); in the assay with Escherichia coli, 6 µM; in the assay with Aspergillus niger it was 6 µM (≈ 3.23 µg/mL).
With `COc1c(N2CCN(C(=O)Cn3cc(CN4C(=O)C(=O)c5ccccc54)nn3)C(C)C2)c(F)cc2c(=O)c(C(=O)O)cn(C3CC3)c12` (stereo not given), the MIC with Staphylococcus aureus [1], in the assay on Staphylococcus aureus [2] and with Staphylococcus aureus [3] was 0.03 µg/mL each time.
For the compound `CCO/N=C1/C(=O)N(Cc2cn(CC(=O)N3CCN(c4c(F)cc5c(=O)c(C(=O)O)cn(C6CC6)c5c4OC)CC3C)nn2)c2ccc(F)cc21` (stereo not given), the MIC in the assay with Staphylococcus aureus [1], with Staphylococcus aureus [2] and with Staphylococcus aureus [3] was 0.03 µg/mL each time.
For the compound `Fc1cc(-n2cc(COc3cc(Cl)cc(Cl)c3)nn2)ccc1N1CCOCC1`, the MIC worked out at 12.5 µg/mL (≈ 29.5 µM) in assay [6], 6.25 µg/mL (≈ 14.8 µM) with Staphylococcus aureus [7] and 12.5 µg/mL (≈ 29.5 µM) in the assay on Bacillus subtilis [8].
As for `COc1ccc(NC(=O)NCc2cn(CCCCn3cc(CNC(=O)Nc4ccc(OC)cc4)nn3)nn2)cc1`, the MIC in the assay with Bacillus subtilis [4] amounted to 6 µM; in [5], 6 µM; with Candida albicans, 6 µM (≈ 3.29 µg/mL); with Escherichia coli, 6 µM; with Aspergillus niger it was 5 µM (≈ 2.74 µg/mL).
Take `O=C(OCc1cn(-c2ccc(N3CCOCC3)c(F)c2)nn1)c1cc2ccccc2[nH]1`: the MIC in assay [6] was found to be 3.12 µg/mL (≈ 7.4 µM); with Staphylococcus aureus [7], 25 µg/mL (≈ 59.3 µM); with Bacillus subtilis [8], 25 µg/mL (≈ 59.3 µM).
As for `Fc1ccccc1OCc1cn(-c2ccc(N3CCOCC3)c(F)c2)nn1`, the results for the MIC (in [6]; in the assay on Staphylococcus aureus [7]; with Bacillus subtilis [8]) were 6.25 µg/mL (≈ 16.8 µM), 12.5 µg/mL (≈ 33.6 µM) and 3.12 µg/mL (≈ 8.38 µM), respectively.
For `Fc1cc(-n2cc(CSc3nc4ccccc4o3)nn2)ccc1N1CCOCC1` the same measures were 6.25 µg/mL (≈ 15.2 µM), 25 µg/mL (≈ 60.8 µM) and 12.5 µg/mL (≈ 30.4 µM).
`Fc1ccc(OCc2cn(-c3ccc(N4CCOCC4)c(F)c3)nn2)cc1`: the MIC came to 3.12 µg/mL (≈ 8.38 µM) in assay [6], 3.12 µg/mL (≈ 8.38 µM) in the assay on Staphylococcus aureus [7] and 1.56 µg/mL (≈ 4.19 µM) in the assay on Bacillus subtilis [8].
As to `CO/N=C1/C(=O)N(Cc2cn(CC(=O)N3CCN(c4c(F)cc5c(=O)c(C(=O)O)cn(C6CC6)c5c4OC)CC3C)nn2)c2c(F)cccc21` (stereo not given), the minimum inhibitory concentration (MIC) with Staphylococcus aureus [1], with Staphylococcus aureus [2] and in the assay on Staphylococcus aureus [3] was 0.03 µg/mL each time.
